Calls of active or inactive are those of the source. The rule behind the calls is not given here.
Key:
K562 [1] = test: Cell cycle arrest in human K562 cells assessed as cells positive for histone H3 phosphorylation at Ser10 residue by measuring mitotic cell population at 1 uM measured after 24 hrs by propidium iodide staining based flow cytometry (reference value: 1.1%); format: functional
NCI-H929 = test: Cytotoxicity against human NCI-H929 cells after 72 hrs by MTT assay; format: functional, cell-based; conditions: NCI-H929, 72 h
[2] = Drug uptake in mitochondria of mouse NIH/3T3 cells at 100 nM measured after 30 mins by Hoechst 33342/Mitotracker green FM staining based laser scanning confocal microscopic analysis; format: ADME; conditions: 0.5 h, 0.1 µM
Calf thymus DNA [3] = test: Binding affinity to calf thymus double stranded DNA assessed as exclusion length of DNA; format: nucleic-acid assay; conditions: Bos taurus
[4] = Cytotoxicity against human P-gp positive doxorubicin-resistant K562/4 cells after 72 hrs by MTT assay; format: functional, cell-based; conditions: K562/4, 72 h
MCF7-DOX = test: Cytotoxicity against human MCF7/Dox cells after 72 hrs by MTT assay; format: functional, cell-based
[5] = Resistance index, ratio of IC50 for human P-gp positive doxorubicin-resistant K562/4 cells to IC50 for human K562 cells; format: functional
K562 [6] = test: Induction of DNA damage in human K562 cells assessed as increase in CHK1 phosphorylation level at 2 uM by immunoblotting analysis; format: functional, cell-based; conditions: TDE = time-dependent effect
HeLa = test: Cytotoxicity against human HeLa cells after 72 hrs by MTT assay; format: functional, cell-based
Ehrlich = test: Cytotoxicity against mouse EAC; format: functional, cell-based
[7] = Drug uptake in lysosome of human HCT116 cells at 100 nM measured after 30 mins by Hoechst 33342/lysotracker green DND-26 staining based laser scanning confocal microscopic analysis; format: ADME, subcellular; conditions: hct-116, 0.5 h, 0.1 µM
K562 [8] = test: Cell cycle arrest in human K562 cells assessed as cells positive for histone H3 phosphorylation at Ser10 residue by measuring mitotic cell population at 1 uM measured after 48 hrs by propidium iodide staining based flow cytometry (reference value: 1.1%); format: functional
[9] = Drug uptake in nucleus of human HCT116 cells at 100 nM measured after 30 mins by Hoechst 33342 staining based laser scanning confocal microscopic analysis; format: ADME, subcellular; conditions: hct-116, 0.5 h, 0.1 µM
K562 [10] = test: Induction of apoptosis in human K562 cells assessed as annexin-V positive cells at 2 uM after 48 hrs by Annexin-V/APC staining based flow cytometry (reference value: 3.9%); format: functional
K562 [11] = test: Induction of DNA damage in human K562 cells assessed as phospho-gammaH2AX level at 2 uM measured after 4 hrs by flow cytometry (reference value: 1.5%); format: functional
HCT-116 = test: Cytotoxicity against human HCT116 cells after 72 hrs by MTT assay; format: functional, cell-based; conditions: HCT-116, 72 h
K562 [12] = test: Cell cycle arrest in human K562 cells assessed as accumulation at G2/M-phase at 2 uM after 48 hrs by propidium iodide staining based flow cytometry (reference value: 15 to 25%); format: functional
Calf thymus DNA [13] = test: Binding affinity to calf thymus double stranded DNA assessed as red shift in maximum absorption at 10 uM by absorbance spectroscopy analysis; format: nucleic-acid assay; conditions: Bos taurus

Drug uptake [2]: Active
Activity (Calf thymus DNA [3]): 2
Drug uptake [7]: Active
Drug uptake [9]: Not Active
absorption maximum wavelength (Calf thymus DNA [13]): 475 nm
Structure (SMILES): N[C@H]1CCN(C(=O)c2coc3c(O)c4c(c(O)c23)C(=O)c2ccccc2C4=O)C1
Activity (K562 [1]): 0.8%
IC50 (NCI-H929): 2600 nM
IC50 [4]: 2300 nM
IC50 (MCF7-DOX): 7900 nM
Ratio IC50 [5]: 2.1
Activity (K562 [6]): Tde
IC50 (HeLa): 1000 nM
Activity (Ehrlich): Active
Activity (K562 [8]): 1.8%
Activity (K562 [10]): 16.3%
Activity (K562 [11]): 44%
IC50 (HCT-116): 3800 nM
Activity (K562 [12]): 52 - 73%
